Assay results from US20140275128A1, “METHOD OF PROVIDING OCULAR NEUROPROTECTION” (INOTEK PHARMACEUTICALS CORPORATION, priority 2013, published 2014).

What was measured:
[1] = cited from earlier work; for study participants who discontinued the study due to adverse events: Low-Pressure Glaucoma Treatment Study
retinal ganglion cells [2] = test: Ischemia-induced retinal ganglion cell death in Long-Evans rats (high IOP insult, histology); assay type: in vivo; conditions: topical; for percent of RGC protected from ischemic insult (FIG. 4): two drops before 60 min ischemia at 110 mmHg, Compound A 2.5% ophthalmic suspension or 0.2% brimonidine tartrate, histology at 7 days; for retinal thinning of inner retina (GCL, IPL) after high IOP (FIG. 2): versus healthy contralateral eye, 7 days
Experimental: Treatment groups of 10 male Long Evans rats, six to eight weeks of age, were anesthetized by i.p. injection of a combination of ketamine (80 mg/kg) and xylazine (8 mg/kg). Additional ketamine was administered as needed to maintain appropriate anesthetic depth, and body temperature was maintained by use of an isothermal pad placed under the animal. Once under anesthesia, topical anesthetic (0.5% proparacaine hydrochloride, single drop) was applied to the cornea of the right eye. […] Several minutes after the second treatment, the anterior chamber of the right eye was cannulated with a 30G needle connected to an elevated reservoir of sterile Hanks balanced salt solution with a fluid level 59 inches above eye level (equivalent to a hydrostatic pressure of 110 mmHg) behind a closed stopcock. Five minutes after the second treatment (fifteen minutes after application of topical anesthetic), the stopcock was opened, and the rise in pressure was directly visualized by inflation of the globe. Animals that suffered an injury to the iris or cornea (beyond the single entry point) were excluded from the study. Sixty minutes after inducing the rise in pressure, the ischemic injury was terminated by closing the stopcock and removing the cannula. The needle entry wound was sealed with veterinary tissue adhesive and the animals allowed to recover from anesthesia before being returned to housing.
Seven days after ischemic injury animals were sacrificed by CO2 inhalation and globes dissected with the proximal optic nerves intact. The anterior chamber was removed, and the eyes were fixed for 30 minutes in 4% paraformaldehyde/PBS, followed by overnight incubation in 30% sucrose. Fixed eyes were trimmed of additional connective tissue and cut along a sagittal plane to generate a flat face for embedding, and the exposed retinal edge was attached to the sclera with tissue adhesive. The eye was infiltrated with increasing strengths of JB-4 embedding medium (glycol methacrylate; GMA), followed by embedding in JB-4 at 4° C. for sagittal sectioning. Optic nerves were co-embedded with their paired retina for transverse sectioning. Embedded tissues were sectioned through or near the optic nerve head at a thickness of 2 μm, and collected on slides for further analysis.
For histological analysis of retinas, sections were stained with 1% toluidine blue in absolute ethanol for 40 seconds, and cover slipped for microscopic examination. Images were captured using cellSens Dimension software on an Olympus BX61 upright microscope with a motorized stage, using a 20× objective and a resolution of 169 nm/pixel, and stitched together using the multiple image alignment procedure of the software. Five locations were chosen at random from across the retina, avoiding areas of extreme curvature or extreme histological disruption, and the thickness of the retinal layers was assessed, as follows: ganglion cells (GCL; count of large, round nuclei in layer near retinal surface in 100 μm region centered on chosen location), inner plexiform layer (IPL; distance from nuclei in ganglion cell layer to nuclei in inner nuclear layer), inner nuclear layer (INL), outer plexiform layer (OPL; distance from nuclei in INL to nuclei in outer nuclear layer), outer nuclear layer (ONL), and total retinal thickness (TR distance from retinal surface above nerve fiber layer to edge of ONL). […]

[3] = test system: nerve fiber layer of the retina (RNFL); conditions: topical 0.2% solution, 12 months, compared to timolol; cited from earlier work
retinal ganglion cells [4] = conditions: nerve crush, acute and chronic ocular hypertension models; cited from earlier work
A2A adenosine receptor = target: T1, A2A adenosine receptor (Homo sapiens, UniProt P29274); test: Adenosine A2A receptor binding, A1 > A2A selectivity; conditions: ratio Ki A2A / Ki A1
T1 construct: expressed in transfected cells; host or cells: CHO cells
T1 sequence (P29274 whole entry): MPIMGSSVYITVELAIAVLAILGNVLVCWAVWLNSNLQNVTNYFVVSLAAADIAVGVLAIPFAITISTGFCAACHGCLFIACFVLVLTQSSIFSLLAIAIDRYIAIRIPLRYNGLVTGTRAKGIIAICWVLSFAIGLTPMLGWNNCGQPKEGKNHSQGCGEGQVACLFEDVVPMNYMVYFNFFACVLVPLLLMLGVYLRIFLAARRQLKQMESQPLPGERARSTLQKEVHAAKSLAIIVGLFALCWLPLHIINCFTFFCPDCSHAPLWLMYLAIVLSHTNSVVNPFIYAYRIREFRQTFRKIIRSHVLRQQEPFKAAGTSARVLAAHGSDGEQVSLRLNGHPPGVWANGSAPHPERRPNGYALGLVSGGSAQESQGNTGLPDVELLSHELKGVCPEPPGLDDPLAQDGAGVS
Experimental: The cell suspension is then homogenized in ice-cold hypotonic buffer (5 mM Tris/HCl, 2 mM EDTA, pH 7.4) and the homogenate is spun for 10 minutes (4° C.) at 1,000 g.

In the case of `CC(C)(C)NC[C@H](O)COc1nsnc1N1CCOCC1` [timolol], the “study participants who discontinued the study due to adverse events” value [1] is listed as 11.4%.
For `Brc1c(NC2=NCCN2)ccc2nccnc12` [brimonidine], the “percent of RGC protected from ischemic insult (FIG. 4)” value (retinal ganglion cells [2]) is given as “around 80%”, the “retinal thinning of inner retina (GCL, IPL) after high IOP (FIG. 2)” value (retinal ganglion cells [2]; two drops before ischemia) is given as “blocked” and the “loss of visual field” value ([1]; 0.2% brimonidine, mean 30.0 month follow up, low pressure glaucoma, compared to timolol control) is given as “slow the loss of visual field”. For the same compound, the “study participants who discontinued the study due to adverse events” value [1] was 28.3%, the “loss in thickness of the nerve fiber layer of the retina (RNFL)” value [3] was “reduce the loss in thickness of the nerve fiber layer of the retina” and the RGC survival (retinal ganglion cells [4]) was “improved RGC survival”.
In the case of `O=[N+]([O-])OC[C@H]1O[C@@H](n2cnc3c(NC4CCCC4)ncnc32)[C@H](O)[C@@H]1O` [Compound A, ((2R,3S,4R,5R)-5-(6-(cyclopentylamino)-9H-purin-9-yl)-3,4-dihydroxytetrahydrofuran-2-yl)methyl nitrate], the “percent of RGC protected from ischemic insult (FIG. 4)” value (retinal ganglion cells [2]) is reported as 100%, the “percentage of protection across retinal layers (FIG. 3)” value (retinal ganglion cells [2]; two drops before ischemia, relative to vehicle and brimonidine) is reported as “greater relative to the vehicle, and slightly greater than the effects of brimonidine” and the “retinal thinning of inner retina (GCL, IPL) after high IOP (FIG. 2)” value (retinal ganglion cells [2]; two drops before ischemia) is reported as “blocked”.
For `O=[N+]([O-])OC[C@H]1O[C@@H](n2cnc3c(NC4CCOC4)ncnc32)[C@H](O)[C@@H]1O` (stereo partly drawn) [Compound D, ((2R,3S,4R,5R)-3,4-dihydroxy-5-(6-(tetrahydrofuran-3-ylamino)-9H-purin-9-yl)tetrahydrofuran-2-yl)methyl nitrate], the “A1 > A2A SELECTIVITY [KiA2(nm)/KiA1(nm)]” value (A2A adenosine receptor) was over 9434.
